Among the test systems are MOLT-4 leukemia; CAKI-1 renal; A498 renal; HL-60(TB) leukemia; SW-620 colon; SF-295 CNS; TK-10 renal; HCC-2998 colon.
Holding throughout (test): NCI anticancer screen, dose series, 48 h

Each structure is given as a SMILES string.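 Results reflect a 48-hour exposure of cells in 96-well plates to compound at five concentrations. At the GI50, growth is halved. At the TGI there is no net growth.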

Turning to `CCOc1ccc2c(c1)[n+]([O-])c(-c1ccc(Cl)cc1)c(N)[n+]2[O-]`, the TGI in the experiment with MOLT-4 leukemia, in the experiment with CAKI-1 renal, in the experiment with A498 renal, in the experiment with HL-60(TB) leukemia, with SW-620 colon and with SF-295 CNS was above 100 µM throughout.
As for `COc1ccc(Br)c(N/N=C2\CCCNC2=O)c1`, the TGI in the experiment with TK-10 renal was above 100 µM; in the experiment with HCC-2998 colon it was above 100 µM; in the experiment on MOLT-4 leukemia it was above 100 µM; in the experiment with CAKI-1 renal, 91.8 µM; with HL-60(TB) leukemia, above 100 µM; with SW-620 colon, above 100 µM. The molecule further gave a TGI in the experiment with SF-295 CNS above 100 µM.
For `CCN(CC)c1c(C(=O)/C=C/c2ccc(OC)cc2)c(-c2ccccc2)nn(C)c1=O`, the TGI with TK-10 renal is 99.9 µM; in the experiment with MOLT-4 leukemia, 19.8 µM; in the experiment on CAKI-1 renal it was above 100 µM; with A498 renal it was 46.8 µM; in the experiment with HL-60(TB) leukemia it was 43.9 µM; with SW-620 colon, 98.4 µM. This molecule also showed a TGI in the experiment with SF-295 CNS of 63.6 µM.
As to `CCOC(=O)N1CCN(C=S)CC1`, the TGI in the experiment on TK-10 renal, with HCC-2998 colon, with MOLT-4 leukemia, in the experiment on A498 renal, in the experiment on HL-60(TB) leukemia and in the experiment on SW-620 colon was above 100 µM throughout.
For the molecule `O=[N+]([O-])c1cc(C(F)(F)F)cc([N+](=O)[O-])c1CCl`, the TGI turned out to be 19.5 µM in the experiment with TK-10 renal; 1.39 µM in the experiment on MOLT-4 leukemia; 7.37 µM with CAKI-1 renal; 38 µM with A498 renal; 3.21 µM with HL-60(TB) leukemia; 1.63 µM with SW-620 colon. Moreover, the TGI with SF-295 CNS amounted to 10.8 µM.
Consider `O=C(O)C(SC(=S)c1ccc(C(=S)SC(C(=O)O)c2ccccc2)cc1)c1ccccc1` (configuration not stated), for which the TGI in the experiment with TK-10 renal, in the experiment on HCC-2998 colon, in the experiment on MOLT-4 leukemia, in the experiment on A498 renal, in the experiment on HL-60(TB) leukemia and with SW-620 colon was above 100 µM in each case. The same molecule displayed a TGI in the experiment with SF-295 CNS above 100 µM.
Regarding `CN1C(=Nc2ccccc2)SC1=Nc1ccccc1`, the TGI in the experiment on TK-10 renal, in the experiment on HCC-2998 colon, in the experiment on MOLT-4 leukemia, in the experiment with A498 renal, in the experiment with HL-60(TB) leukemia and in the experiment with SW-620 colon was above 100 µM throughout. The same molecule showed a TGI in the experiment with SF-295 CNS above 100 µM.
Turning to `Cc1cc(=O)n(-c2ccccc2C)c(C)n1`, the TGI with TK-10 renal, in the experiment on HCC-2998 colon, in the experiment with MOLT-4 leukemia, in the experiment on CAKI-1 renal, in the experiment on A498 renal and in the experiment with HL-60(TB) leukemia was above 100 µM in each case. Moreover, the TGI with SW-620 colon and in the experiment with SF-295 CNS was above 100 µM throughout.
Regarding `CCCCOC(=O)C1C2CCC(O2)C1C(=O)OCCCC` (configuration not stated), the TGI in the experiment with TK-10 renal, with HCC-2998 colon, in the experiment with MOLT-4 leukemia, in the experiment with CAKI-1 renal, in the experiment with A498 renal and in the experiment with HL-60(TB) leukemia was above 100 µM in each case. Further, the TGI is above 22.9 µM in the experiment on SW-620 colon and above 100 µM in the experiment on SF-295 CNS.
Turning to `CC(=O)CC(=O)OC1CC(C)CCC1C(C)C` (configuration not stated), the TGI in the experiment on TK-10 renal was above 100 µM; with HCC-2998 colon it was above 100 µM; in the experiment with MOLT-4 leukemia, 44.2 µM; in the experiment with CAKI-1 renal it was above 100 µM; in the experiment with A498 renal it was above 100 µM; in the experiment with HL-60(TB) leukemia, 40.2 µM. The TGI with SW-620 colon and with SF-295 CNS was above 100 µM throughout.
`CCC[CH2][Sn]1([CH2]CCC)[O]C(=O)c2cccnc2[O]1`: the GI50 was 2.73 µM with TK-10 renal; 3.76 µM in the experiment on HCC-2998 colon; 2.09 µM in the experiment with MOLT-4 leukemia; 0.74 µM in the experiment on CAKI-1 renal; 2.72 µM in the experiment with A498 renal; 1.34 µM in the experiment on HL-60(TB) leukemia. Moreover, the GI50 in the experiment with SW-620 colon is 1.48 µM; in the experiment on SF-295 CNS, 3.12 µM. In addition, the TGI with TK-10 renal came to 8.23 µM; in the experiment on HCC-2998 colon it was 14.6 µM; in the experiment on MOLT-4 leukemia it was 5.96 µM; with CAKI-1 renal it was 3.93 µM; in the experiment on A498 renal it was 7.27 µM; in the experiment on HL-60(TB) leukemia, 3.99 µM. In addition, the values for the TGI with SW-620 colon and in the experiment with SF-295 CNS were 3.6 µM and 10.4 µM, respectively.
Take `COC(=O)/C(C)=C(/CCC1(C)OCCO1)O[Si](C)(C)C`: the TGI in the experiment with TK-10 renal, in the experiment with HCC-2998 colon, in the experiment with MOLT-4 leukemia, in the experiment with CAKI-1 renal, with HL-60(TB) leukemia and in the experiment with SW-620 colon was above 100 µM throughout. The TGI with SF-295 CNS is above 100 µM.
As to `CCCCNc1nc(C#N)c(N)s1`, the TGI with TK-10 renal, in the experiment with HCC-2998 colon, in the experiment on MOLT-4 leukemia, in the experiment on CAKI-1 renal, with HL-60(TB) leukemia and with SW-620 colon was above 100 µM in each case. This molecule also gave a TGI in the experiment with SF-295 CNS above 100 µM.
In the case of `CN(C)CC/C(=N\Nc1ccc([N+](=O)[O-])cc1)c1ccccc1`, the TGI is 15.3 µM with TK-10 renal; 24.5 µM with MOLT-4 leukemia; 27.2 µM in the experiment on A498 renal; 16.3 µM in the experiment on HL-60(TB) leukemia; 26.5 µM with SW-620 colon; 23.6 µM in the experiment on SF-295 CNS.
Regarding `OC(c1ccccc1)(c1ccccc1)c1ccncc1`, the TGI in the experiment on TK-10 renal, in the experiment with HCC-2998 colon, in the experiment on MOLT-4 leukemia, with CAKI-1 renal, in the experiment on HL-60(TB) leukemia and in the experiment with SW-620 colon was above 100 µM each time. In addition, the TGI in the experiment on SF-295 CNS was above 100 µM.
Turning to `Oc1c(C(Nc2cccc3cccnc23)c2ccccc2)ccc2cccnc12` (configuration not stated), the TGI with HCC-2998 colon was above 100 µM; with MOLT-4 leukemia, above 100 µM; with CAKI-1 renal, above 100 µM; with A498 renal, 66.6 µM; in the experiment on HL-60(TB) leukemia, 7.58 µM; in the experiment on SW-620 colon, above 100 µM. The TGI with SF-295 CNS is above 100 µM.
Take `COC1CC(OS(=O)(=O)c2ccc([N+](=O)[O-])cc2)C(OC(=O)c2ccccc2)C(C)O1` (configuration not stated): the TGI in the experiment on TK-10 renal, in the experiment with HCC-2998 colon, in the experiment with MOLT-4 leukemia, in the experiment with CAKI-1 renal, with A498 renal and in the experiment with HL-60(TB) leukemia was above 100 µM each time. Moreover, the TGI in the experiment with SW-620 colon and in the experiment with SF-295 CNS was above 100 µM in each case.
Turning to `c1ccc2c(c1)cc(C1NCCc3[nH]cnc31)c1ccccc12` (configuration not stated), the TGI with TK-10 renal was above 100 µM; in the experiment with HCC-2998 colon it was 21.8 µM; with MOLT-4 leukemia, 61.7 µM; with CAKI-1 renal it was above 100 µM; in the experiment on A498 renal, 50 µM; with HL-60(TB) leukemia, above 100 µM. In addition, the TGI in the experiment on SW-620 colon is above 60.5 µM; in the experiment with SF-295 CNS it was above 100 µM.
In the case of `CC(C)C1CC[C@@H](C)C[C@@]1(O)CC(N)=O` (some centres not stated), the TGI in the experiment with TK-10 renal, in the experiment on HCC-2998 colon, in the experiment with MOLT-4 leukemia, with CAKI-1 renal, in the experiment with SW-620 colon and in the experiment on SF-295 CNS was above 100 µM throughout.
`Clc1ccc(C2SCc3nc4ccccc4n32)c(Cl)c1` (configuration not stated): the TGI with TK-10 renal amounted to 28.4 µM; in the experiment on HCC-2998 colon, 28.8 µM; in the experiment with MOLT-4 leukemia, 34.6 µM; in the experiment with A498 renal, 28.4 µM; in the experiment on HL-60(TB) leukemia, 28.3 µM; in the experiment with SW-620 colon, 22 µM. The TGI in the experiment on SF-295 CNS turned out to be 21.1 µM.
With `O=C([CH-]C(=O)c1ccccc1)c1ccccc1.O=C([CH-]C(=O)c1ccccc1)c1ccccc1.[La+3].[OH-].[OH3+]`, the GI50 is 32.1 µM with TK-10 renal; 16.1 µM in the experiment on HCC-2998 colon; 6.24 µM with MOLT-4 leukemia; 17.4 µM in the experiment with CAKI-1 renal; 17.9 µM in the experiment with A498 renal; 3.87 µM in the experiment with HL-60(TB) leukemia. The GI50 in the experiment on SW-620 colon was 9.82 µM. The TGI in the experiment with TK-10 renal was above 100 µM; in the experiment with HCC-2998 colon it was 48.1 µM; in the experiment with MOLT-4 leukemia it was 38.6 µM; with CAKI-1 renal it was 56.8 µM; in the experiment with A498 renal it was 87.7 µM; in the experiment with HL-60(TB) leukemia, 22.7 µM. In the experiment with SW-620 colon, this molecule showed a TGI above 100 µM.
For `Oc1ccccc1/C=C/c1csnn1`, the TGI in the experiment with TK-10 renal is above 100 µM; in the experiment on HCC-2998 colon, above 100 µM; in the experiment with MOLT-4 leukemia, above 100 µM; in the experiment with CAKI-1 renal it was above 100 µM; in the experiment on A498 renal, above 100 µM; with HL-60(TB) leukemia it was 99.7 µM. For the same molecule, the TGI in the experiment with SW-620 colon and in the experiment on SF-295 CNS was above 100 µM throughout.
Turning to `CP1(=O)CCCCC1`, the TGI with TK-10 renal, in the experiment with HCC-2998 colon, with MOLT-4 leukemia, in the experiment on CAKI-1 renal, in the experiment with HL-60(TB) leukemia and with SW-620 colon was above 100 µM in each case. Besides, the TGI in the experiment on SF-295 CNS is above 100 µM.
For `Nc1ccnc(=O)[nH]1`, the TGI with TK-10 renal, in the experiment on CAKI-1 renal, in the experiment on A498 renal, in the experiment on HL-60(TB) leukemia, in the experiment on SW-620 colon and with SF-295 CNS was above 100 µM in each case.
For `Cc1ccc2nc(NC(=O)C(=O)C(C#N)c3nc4ccccc4s3)sc2c1` (configuration not stated), the TGI with TK-10 renal is 85.3 µM; in the experiment with HCC-2998 colon it was above 100 µM; in the experiment on MOLT-4 leukemia it was 51.4 µM; in the experiment with CAKI-1 renal, 94.3 µM; with A498 renal it was 37.8 µM; in the experiment with SW-620 colon it was above 100 µM. The molecule further returned a TGI with SF-295 CNS above 100 µM.

The values are drawn from PubChem BioAssay (NCI).
